These results are taken from PubChem BioAssay AID488890 (Southern Research Specialized Biocontainment Screening …, 2010).

Each structure is given as a SMILES string. Inconclusive results are not listed. Activity calls are given as the source filed them. The rule behind the calls is not given here. Where only a bound is given, the exact number is not on record here.

One may read the IC50 as the concentration at which inhibition is half-maximal.

In this experiment the test system is Mycobacterium tuberculosis non-replicating, growth inhibition. Briefly: growth inhibition of non-replicating M. tuberculosis (AID 488890).
`CCOC(=O)Nc1ccc2c(c1)N(C(=O)CCN1CCOCC1)c1ccccc1S2=O` (stereo unspecified): the IC50 is 3.62 µM.

As to `CC(C)c1ccc(/C=N/NC(=O)c2ccccn2)cc1`, the IC50 was 12.9 µM (inactive).

For the compound `CCCCSc1nnc(-c2ccc(C)cc2)o1`, the IC50 was 0.37 µM.

For `Cc1ccc(NC(=O)CN(C)CC(=O)Nc2ccc(F)c(Cl)c2)cc1`, the IC50 was 26.5 µM (inactive).

For `CCC(=O)Nc1nc2ccccc2n1Cc1ccccc1Cl`, the IC50 was 4.32 µM.

Take `COc1cc(/C=C2/C(=O)NN(c3ccc(Cl)cc3)C2=O)ccc1OC(=O)c1ccco1`: the IC50 was 5.12 µM.

Consider `N=C1/C(=C/c2ccc(OC(=O)c3ccco3)cc2)C(=O)N=C2SC=CN12`, for which the IC50 is 5.02 µM.

On to `O=C(Oc1ccccc1Cl)c1ccc2c(=O)n3c(nc2c1)CCC3`, for which the IC50 is 2.28 µM.

On to `CCN(CC)Cc1ccc(NC(=O)c2sc3cc(Cl)ccc3c2Cl)cc1`, for which the IC50 is 11.2 µM (inactive).

For the compound `O=C(CCC1CCCC1)NCc1ccccn1`, the IC50 is 3.4 µM.

As to `COc1ccc(N2C(=O)NC(=O)/C(=C/c3ccc([N+](=O)[O-])s3)C2=O)cc1`, the IC50 was 16.1 µM (inactive).

Consider `CCOC(=O)C(C)Oc1cc(Cl)c(C=O)cc1OC` (stereo unspecified), for which the IC50 is 8.06 µM.

Consider `Cc1[nH]nc2c1C(c1ccc(OC(=O)c3ccco3)cc1)C(C#N)=C(N)O2` (stereo unspecified), for which the IC50 was 6.69 µM.

On to `N#Cc1ccc(-c2ccc(OCC(=O)Nc3cccnc3)cc2)cc1`, for which the IC50 was 1.43 µM.

`O=C(COC(=O)CCc1c[nH]c2ccccc12)NCc1ccc2c(c1)OCO2`: the IC50 is 9.66 µM.

For `CCN1/C(=C(\O)c2ccccc2)C(=O)c2ccccc2S1(=O)=O`, the IC50 was 15.8 µM (inactive).

As for `CC(OC(=O)c1ccc2c(=O)n3c(nc2c1)CCCCC3)C(=O)Nc1ccc(Cl)cn1` (stereo unspecified), the IC50 was 3.69 µM.

With `O=[N+]([O-])c1ccc(-n2nnnc2-c2ccccc2)c([N+](=O)[O-])c1`, the IC50 was 6.37 µM.

For the compound `CCOc1ccc(C(=O)CCN2CCCCCC2)cc1`, the IC50 is 2.44 µM.

Turning to `CC(/C=C\C=C\c1ccccc1)=N\NC(=O)c1cncc(Br)c1`, the IC50 is 31.2 µM (inactive).

`C=Cc1cccc(NC(=O)COc2ccccc2)c1`: the IC50 is 5.75 µM.

`NC(N)=N/N=C/c1cc([N+](=O)[O-])ccc1O`: the IC50 was 4.29 µM.

In the case of `CCOC(=O)c1csc(COc2ccccc2Cl)n1`, the IC50 is 1.57 µM.

`CC(C)Cn1c([N+](=O)[O-])nc2c1c(=O)[nH]c(=O)n2C`: the IC50 was 5.81 µM.

Turning to `O=C(COC(=O)c1ccccc1Br)Nc1ccccc1F`, the IC50 was 14.7 µM (inactive).

Regarding `CCN(CC)CCNC(=O)c1[nH]c2ccc(OCc3ccccc3)cc2c1C`, the IC50 is 29.6 µM (inactive).

Turning to `CCCCOc1ccc(-c2nnn(C(C)C(=O)OCC)n2)cc1` (stereo unspecified), the concentration for half-maximal inhibition (IC50) was 1.57 µM.

`Cc1nc2ccc(Cl)cc2nc(C)/c1=N\O`: the IC50 is 14.4 µM (inactive).

Take `Cc1cc(N/N=C/c2ccccc2[N+](=O)[O-])nc(-n2nc(C)cc2C)n1`: the IC50 was 1.96 µM.

In the case of `CCCCOC(=O)C1CCCC(C(=O)OCCCC)N1` (stereo unspecified), the IC50 was 4.91 µM.

In the case of `CCOc1ccccc1C(=O)OCC(=O)Nc1nnc(-c2ccccc2)o1`, the IC50 was 21.7 µM (inactive).

On to `CC1=NN(C(=O)c2ccccc2Cl)C(O)(c2ccccc2)C1` (stereo unspecified), for which the IC50 is 1.43 µM.

As for `CCOC(=O)Cc1c(C)nc2c(-c3cccc(Br)c3)c[nH]n2c1=O`, the IC50 was 4.13 µM.

As for `OC(C#CCN1CCOCC1)c1cccs1` (stereo unspecified), the IC50 was 7.53 µM.

`CCOC(=O)C(=O)Cc1nc2ccccc2s1`: the IC50 was 6.54 µM.

Take `COC(=O)c1ccc(CO/N=C/c2ccc(OC)cc2)o1`: the IC50 is 6.95 µM.

As to `CCC1CCc2sc(C(=O)NCC3CCCO3)cc2C1` (stereo unspecified), the IC50 is 1.44 µM.

Turning to `COC(=O)COc1ccc2c(-c3cccc([N+](=O)[O-])c3)cc(=O)oc2c1`, the IC50 was 1.84 µM.

Take `O=C(c1ccccc1)C1CN(Cc2ccccc2)CCC1(O)c1ccccc1` (stereo unspecified): the IC50 was 3.82 µM.

As to `O=C(Nc1ccc(N2CCN(C(=O)c3cccs3)CC2)cc1)c1ccc([N+](=O)[O-])o1`, the half-maximal inhibitory concentration (IC50) was 0.35 µM.

Turning to `O=C1Nc2cc(C(=O)NCCN3CCCCCC3)ccc2S/C1=C\c1ccccc1`, the IC50 was 12.5 µM (inactive).

As to `CC(C)c1ccc2c(c1)C(N1CCNCC1)Cc1ccc(F)cc1S2` (stereo unspecified), the IC50 is 14.5 µM (inactive).

On to `Cc1cc(C)n(CC(=O)N/N=C/c2ccc([N+](=O)[O-])s2)n1`, for which the IC50 was 24.4 µM (inactive).

Regarding `COc1ccc(OCCOC(=O)c2cccs2)cc1`, the IC50 is 27.6 µM (inactive).

Take `CCCOc1ccc(N2CC(C(=O)Nc3ccccn3)CC2=O)cc1` (stereo unspecified): the IC50 was 10.9 µM (inactive).

As for `COc1ccc(N/N=C/c2c(C(=O)O)ccc3ccccc23)cc1`, the IC50 was less than 0.1 µM.

Turning to `CS/C(Nc1cc(Cl)ccc1Cl)=C(/C#N)C(=O)c1ccco1`, the IC50 was 1.5 µM.

With `O=C1NC(=O)C(=Cc2ccc(Oc3ccc([N+](=O)[O-])cc3)cc2)C(=O)N1`, the IC50 was 16.5 µM (inactive).

Turning to `CCCCNC(=O)COC(=O)c1cc(Br)ccc1Cl`, the IC50 was 3.86 µM.

`CCCN1C(=O)SC(CC(=O)Nc2ccccc2)C1=O` (stereo unspecified): the IC50 is 17.5 µM (inactive).

Consider `COc1ccc(-c2nc(C=O)cs2)cc1`, for which the IC50 was 5.84 µM.

For the compound `CCOC(=O)c1ccc(COC(=O)c2ccc(-c3nnc(-c4ccccc4)o3)cc2)o1`, the IC50 is 6.43 µM.

On to `CC1CC(C)CN(CCOCCSc2ccc(Cl)cc2)C1` (stereo unspecified), for which the IC50 was 30.7 µM (inactive).

For `O=Cc1c(NCc2ccco2)nc2ccccn2c1=O`, the IC50 was 4.93 µM.

Regarding `CCOC(=O)C1(O)CC(C)=NN1C(=O)c1cccc(Br)c1` (stereo unspecified), the IC50 is 1.42 µM.

`C/C(=N\Nc1nc2ccccc2[nH]1)c1ccc(N2CCOCC2)cc1`: the IC50 was 10.5 µM (inactive).

Take `Cc1cc(NCCCn2ccnc2)n2ncc(-c3ccc(Cl)cc3)c2n1`: the IC50 was 13.1 µM (inactive).

As to `CC1(c2nnc(-c3ccc(F)cc3)o2)CC(c2cccc(Cl)c2)=NO1` (stereo unspecified), the IC50 was 2.9 µM.

Take `O=S1(=O)N=C(N/N=C/C=C/c2ccccc2)c2ccccc21`: the IC50 was 8.69 µM.

For `Fc1ccc(-c2nnc(-c3ccc(F)cc3)o2)cc1`, the IC50 is 8.38 µM.

In the case of `CN(C)CCOc1nc(-c2ccccc2)nc2c1oc1ccccc12`, the IC50 is 14.3 µM (inactive).

For the compound `CCc1nnc(NC(=O)CN2CCN(Cc3ccc(F)cc3)CC2)s1`, the IC50 was 47 µM (inactive).

Turning to `COc1ccccc1CCNC(=O)c1ccc(C)o1`, the IC50 was 2.96 µM.

For the compound `COc1ccc2c(c1)sc(=N)n2C`, the IC50 is 19.3 µM (inactive).

As to `N/C(=N/OC(=O)c1ccccc1Cl)c1ncc([N+](=O)[O-])s1`, the IC50 was 3.15 µM.

On to `CC1Cc2ccccc2N1C(=O)COC(=O)c1ccc(Cl)nc1` (stereo unspecified), for which the IC50 was 18.5 µM (inactive).

`COC(=O)COc1cccc(/C=N/NC(=O)CCSc2ccccc2)c1`: the concentration for half-maximal inhibition (IC50) is 9.71 µM.

As to `CCCOC(=O)c1ccc(OC(=O)c2ccco2)cc1`, the IC50 was 21.9 µM (inactive).

For the compound `C=CCc1ccc2oc(C(=O)OCC)cc(=O)c2c1O`, the IC50 was 1.26 µM.

Turning to `CN1C(=O)NC(=O)/C(=C/c2ccc([N+](=O)[O-])s2)C1=O`, the IC50 is 10.3 µM (inactive).

In the case of `O=C(Nc1nc2c(Cl)cccc2s1)c1ccc([N+](=O)[O-])o1`, the concentration for half-maximal inhibition (IC50) was 1.56 µM.

As for `CCCn1nnnc1NC(=O)c1ccc2ccccc2c1`, the IC50 was 3.46 µM.

As for `O=C(Cc1ccccc1)Nc1ccc(C(=O)NCC2COc3ccccc3O2)cc1` (stereo unspecified), the IC50 is 28.3 µM (inactive).

For the compound `Cc1ccc(C)c(-c2nnc(NC(=O)c3ccco3)o2)c1`, the IC50 is 0.66 µM.

Turning to `Cc1occc1-c1nnc(-c2cc([N+](=O)[O-])cc([N+](=O)[O-])c2)o1`, the IC50 is 1.56 µM.

Turning to `O=Cc1ccnc(-c2ccc(OC(=O)c3ccco3)cc2)n1`, the IC50 was 18.2 µM (inactive).

`Clc1c(OCCCn2ccnc2)ccc2ccccc12`: the IC50 is 9.74 µM.

As to `COc1ccc(OC(=O)c2cc3ccccc3o2)cc1`, the IC50 is 18.4 µM (inactive).

Turning to `COc1ccc(C(O)CNc2ccc(C)cc2)cc1` (stereo unspecified), the IC50 was 43.2 µM (inactive).

In the case of `C=CCc1ccc(OCC(O)CN2CCN(Cc3ccc(Cl)cc3)CC2)c(OC)c1` (stereo unspecified), the IC50 was 15.7 µM (inactive).

Take `S=C1SCN(Cc2ccco2)CN1Cc1ccco1`: the IC50 was 14.1 µM (inactive).

Consider `CC(=O)Nc1ccc(OC(=O)c2ccc(Br)c([N+](=O)[O-])c2)cc1`, for which the IC50 was 8.96 µM.

On to `CN1CCN(c2c(F)cc3c(=O)c(C(=O)O)cn4c3c2SCC4)CC1`, for which the IC50 is 16.8 µM (inactive).

Consider `CCOc1cc(CNCCO)cc(Br)c1OCc1ccccc1Cl`, for which the IC50 was 6.17 µM.

With `O=C(N/N=C/c1ccccn1)c1ccccc1`, the IC50 was 14.6 µM (inactive).

Turning to `COc1cc(C=O)ccc1OCCOCCOc1ccc(Cl)cc1`, the IC50 was 27.8 µM (inactive).

For the compound `Cc1ccc2nc(C)c3c(c2c1)COC3`, the IC50 was 29.8 µM (inactive).

For the compound `O=C(Nc1nc(-c2cccs2)cs1)c1ccc([N+](=O)[O-])o1`, the IC50 is 2.08 µM.

As for `c1ccc(/N=C2\N=C(Nc3ccccn3)c3ccccc32)nc1`, the IC50 is less than 0.1 µM.

In the case of `Cc1ccnc(-n2sc3ccccc3c2=O)n1`, the IC50 is 25.6 µM (inactive).

As to `COc1ccccc1-n1c(=O)oc2ccc(Cl)cc2c1=O`, the IC50 is 12 µM (inactive).

On to `Cc1noc2ncnc(Sc3ccc(Br)cc3)c12`, for which the IC50 is 6.24 µM.

Turning to `CC(C)(C)c1ccc(OCCC(=O)OCC(=O)NC2CCCCC2)cc1`, the IC50 is 9.3 µM.

In the case of `Cc1nc2ccc(NC(=O)COc3cccc(F)c3)cc2s1`, the IC50 is 7.87 µM.

As for `O=c1c2ccc(Cl)cc2nc(-c2ccc([N+](=O)[O-])cc2)n1O`, the IC50 was 1.3 µM.

As for `COc1ccc(-c2nnc(SCC(C)C)o2)cc1`, the IC50 is 0.9 µM.

In the case of `CC[n+]1c(/C=C(\C)Nc2ccccc2)sc2ccccc21`, the IC50 was 6.34 µM.

For the compound `O=C(CCC(=O)Nc1ccc(Cl)cc1Cl)N/N=C/c1ccc([N+](=O)[O-])o1`, the IC50 was 2.18 µM.

For `Cc1n[nH]c(=S)n1/N=C/c1ccc(OCc2ccc(Cl)cc2Cl)cc1`, the IC50 was 37.5 µM (inactive).

In the case of `CCOc1cc(CNCCO)cc(Br)c1OCc1ccc(Cl)cc1`, the IC50 is 5.65 µM.

On to `Cc1cc(C)c(C(=O)COC(=O)c2ccc([N+](=O)[O-])o2)cc1C`, for which the IC50 is 0.93 µM.
